Data from patent publication US20070232607A1, “Quinazoline Derivatives as Erbb Receptor Tyrosine kinases” (priority 2004, published 2007).

Columns and labels:
EGFR tyrosine kinase = molecular target: T1, EGFR tyrosine kinase (Homo sapiens, UniProt P00533); test: Protein tyrosine kinase phosphorylation assay, Test (a), EGFR; format: biochemical; settings: recombinant intracellular fragment, ATP at Km concentration; read-out: IC50 (μM) Test (a): Inhibition of EGFR tyrosine kinase protein phosphorylation
T1 construct: Recombinant intracellular fragments of EGFR, erbB2 and erbB4; made in house; host or cells: baculovirus/Sf21 insect cells (cleared lysate used)
T1 sequence (P00533 669-1210 limits assumed): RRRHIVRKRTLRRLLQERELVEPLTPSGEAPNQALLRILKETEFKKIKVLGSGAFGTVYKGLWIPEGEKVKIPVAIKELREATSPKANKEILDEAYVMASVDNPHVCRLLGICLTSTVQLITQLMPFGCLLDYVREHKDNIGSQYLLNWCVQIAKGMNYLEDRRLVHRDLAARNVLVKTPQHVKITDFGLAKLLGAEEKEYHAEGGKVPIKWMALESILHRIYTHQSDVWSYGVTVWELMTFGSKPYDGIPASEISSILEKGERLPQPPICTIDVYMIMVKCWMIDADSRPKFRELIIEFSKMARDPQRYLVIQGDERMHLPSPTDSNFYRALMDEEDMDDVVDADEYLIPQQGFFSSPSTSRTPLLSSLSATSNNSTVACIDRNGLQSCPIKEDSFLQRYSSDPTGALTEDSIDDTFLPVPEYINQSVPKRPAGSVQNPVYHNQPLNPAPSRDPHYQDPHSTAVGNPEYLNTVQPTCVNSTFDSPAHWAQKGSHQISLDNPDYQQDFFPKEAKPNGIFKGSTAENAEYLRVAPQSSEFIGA
Method: (§1) This test measures the ability of a test compound to inhibit the phosphorylation of a tyrosine containing polypeptide substrate by an erb receptor tyrosine kinase enzyme.
(§2) Recombinant intracellular fragments of EGFR, erbB2 and erbB4 (accession numbers X00588, X03363 and L07868 respectively) were cloned and expressed in the baculovirus/Sf21 system. Lysates were prepared from these cells by treatment with ice-cold lysis buffer (20 mM N-2-hydroxyethylpiperizine-N′-2-ethanesulfonic acid (HEPES) pH7.5, 150 mM NaCl, 10% glycerol, 1% Triton X-100, 1.5 mM MgCl2, 1 mM ethylene glycol-bis(β-aminoethyl ether) N′,N′,N′,N′-tetraacetic acid (EGTA), plus protease inhibitors and then cleared by centrifugation.
(§3) Constitutive kinase activity of these recombinant proteins was determined by their ability to phosphorylate a synthetic peptide (made up of a random co-polymer of Glutamic Acid, Alanine and Tyrosine in the ratio of 6:3:1). Specifically, Maxisorb™ 96-well immunoplates were coated with synthetic peptide (0.2 μg of peptide in a 100 μl phosphate buffered saline (PBS) solution and incubated at 4° C. overnight). Plates were washed in 50 mM HEPES pH 7.4 at room temperature to remove any excess unbound synthetic peptide. EGFR or erbB2 activities were assessed by incubation in peptide coated plates for 20 minutes at room temperature in 50 mM HEPES pH 7.4 at room temperature, adenosine trisphosphate (ATP) at Km concentration for the respective enzyme, 10 mM MnCl2, 0.05 mM Na3VO4, 0.1 mM DL-dithiothreitol (DTT), 0.05% Triton X-100 with test compound in DMSO (final concentration of 2.5%). Reactions were terminated by the removal of the liquid components of the assay followed by washing of the plates with PBS-T (phosphate buffered saline with 0.05% Tween 20).
(§4) The immobilised phospho-peptide product of the reaction was detected by immunological methods. Firstly, plates were incubated for 90 minutes at room temperature with anti-phosphotyrosine primary antibodies that were raised in the mouse (4G10 from Upstate Biotechnology). Following extensive washing, plates were treated with Horseradish Peroxidase (HRP) conjugated sheep anti-mouse secondary antibody (NXA931 from Amersham) for 60 minutes at room temperature. After further washing, HRP activity in each well of the plate was measured colorimetrically using 22′-Azino-di-[3-ethylbenzthiazoline sulfonate (6)] diammonium salt crystals (ABTS™ from Roche) as a substrate.
(§5) Quantification of colour development and thus enzyme activity was achieved by the measurement of absorbance at 405 nm on a Molecular Devices ThermoMax microplate reader. Kinase inhibition for a given compound was expressed as an IC50 value. […] The range of phosphorylation was calculated from the positive (vehicle plus ATP) and negative (vehicle minus ATP) control values.

[1] = molecular target: T2, erbB2 in a MCF7 derived cell line (Clone 24 cells) (Homo sapiens, UniProt P04626); test: Clone 24 phospho-erbB2 cell assay, Test (d); format: cell-based; settings: phosphorylation of erbB2 in a MCF7 derived cell line; read-out: IC50 (μM) Test (e): Inhibition of erbB2 tyrosine kinase protein phosphorylation
T2 construct: a cell line that overexpresses full length wild type erbB2 protein; expressed in transfected cells; host or cells: MCF7 (breast carcinoma) cells stably transfected, 'Clone 24'
T2 sequence (P04626 23-1255): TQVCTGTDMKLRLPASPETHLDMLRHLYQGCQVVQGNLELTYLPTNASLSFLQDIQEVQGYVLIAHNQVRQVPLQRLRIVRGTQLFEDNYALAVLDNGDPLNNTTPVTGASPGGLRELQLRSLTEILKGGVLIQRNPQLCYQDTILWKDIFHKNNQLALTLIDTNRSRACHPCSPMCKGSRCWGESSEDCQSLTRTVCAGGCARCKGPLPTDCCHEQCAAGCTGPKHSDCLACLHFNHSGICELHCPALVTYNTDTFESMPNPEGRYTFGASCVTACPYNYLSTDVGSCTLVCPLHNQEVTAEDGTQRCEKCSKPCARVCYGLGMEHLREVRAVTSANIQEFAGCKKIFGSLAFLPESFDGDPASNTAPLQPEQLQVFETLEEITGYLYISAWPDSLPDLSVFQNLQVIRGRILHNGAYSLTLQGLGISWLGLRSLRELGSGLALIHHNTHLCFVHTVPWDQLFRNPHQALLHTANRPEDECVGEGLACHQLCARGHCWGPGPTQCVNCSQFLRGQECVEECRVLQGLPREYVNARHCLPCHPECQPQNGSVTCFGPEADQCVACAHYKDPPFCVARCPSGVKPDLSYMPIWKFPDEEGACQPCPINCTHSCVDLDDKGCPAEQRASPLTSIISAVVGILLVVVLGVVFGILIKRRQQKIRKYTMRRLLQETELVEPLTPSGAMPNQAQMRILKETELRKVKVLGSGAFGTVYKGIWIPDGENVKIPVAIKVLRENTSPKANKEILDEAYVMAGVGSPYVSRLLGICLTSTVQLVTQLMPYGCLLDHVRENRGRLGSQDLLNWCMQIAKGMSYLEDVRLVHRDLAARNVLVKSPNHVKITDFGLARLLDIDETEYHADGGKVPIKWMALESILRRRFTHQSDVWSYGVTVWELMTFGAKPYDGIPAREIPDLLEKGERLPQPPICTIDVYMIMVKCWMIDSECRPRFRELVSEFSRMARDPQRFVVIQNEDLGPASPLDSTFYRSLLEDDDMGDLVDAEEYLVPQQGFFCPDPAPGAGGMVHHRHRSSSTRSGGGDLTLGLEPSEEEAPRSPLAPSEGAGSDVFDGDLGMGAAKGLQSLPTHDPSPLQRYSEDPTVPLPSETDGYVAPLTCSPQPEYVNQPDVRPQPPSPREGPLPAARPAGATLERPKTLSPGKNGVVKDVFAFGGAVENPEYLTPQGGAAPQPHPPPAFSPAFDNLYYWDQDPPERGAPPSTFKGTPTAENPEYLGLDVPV
Method: This immunofluorescence end point assay measures the ability of a test compound to inhibit the phosphorylation of erbB2 in a MCF7 (breast carcinoma) derived cell line which was generated by transfecting MCF7 cells with the full length erbB2 gene using standard methods to give a cell line that overexpresses full length wild type erbB2 protein (hereinafter ‘Clone 24’ cells).
Clone 24 cells were cultured in Growth Medium (phenol red free Dulbecco's modified Eagle's medium (DMEM) containing 10% foetal bovine serum, 2 mM glutamine and 1.2 mg/ml G418) in a 7.5% CO2 air incubator at 37° C. Cells were harvested from T75 stock flasks by washing once in PBS (phosphate buffered saline, pH7.4, Gibco No. 10010-015) and harvested using 2 mls of Trypsin (1.25 mg/ml)/ethylaminediaminetetraacetic acid (EDTA) (0.8 mg/ml) solution. The cells were resuspended in Growth Medium. Cell density was measured using a haemocytometer and viability was calculated using Trypan Blue solution before being further diluted in Growth Medium and seeded at a density of 1×10^4 cells per well (in 100 ul) into clear bottomed 96 well plates (Packard, No. 6005182).
3 days later, Growth Medium was removed from the wells and replaced with 100 ul Assay Medium (phenol red free DMEM, 2 mM glutamine, 1.2 mg/ml G418) either with or without erbB inhibitor compound. Plates were returned to the incubator for 4 hours and then 20 μl of 20% formaldehyde solution in PBS was added to each well and the plate was left at room temperature for 30 minutes. This fixative solution was removed with a multichannel pipette, 100 μl of PBS was added to each well and then removed with a multichannel pipette and then 50 μl PBS was added to each well. Plates were then sealed and stored for up to 2 weeks at 4° C.
Immunostaining was performed at room temperature. Cells were washed once with 200 μl PBS/Tween 20 (made by adding 1 sachet of PBS/Tween dry powder (Sigma, No. P3563) to 1 L of double distilled H2O) using a plate washer, then 100 μl of 0.5% Triton X-100/PBS was added to each well to permeabalise the cells. After 10 minutes, the plates were washed with 200 μl PBS/Tween 20 and then 100 μl Blocking Solution (5% Marvel dried simmed milk (Nestle) in PBS) was added per well and plates were incubated for 15 minutes. […] Plates were analysed within six hours of completing the immunostaining.
The Fluorescence signal is each well was measured using an Acumen Explorer Instrument (Acumen Bioscience Ltd.), a plate reader that can be used to rapidly quantitate features of images generated by laser-scanning. […] Fluorescence dose response data obtained with each compound was exported into a suitable software package (such as Origin) to perform curve fitting analysis. […]

erbB2 tyrosine kinase = molecular target: T3, erbB2 tyrosine kinase (Homo sapiens, UniProt P04626); test: Protein tyrosine kinase phosphorylation assay, Test (a), erbB2; format: biochemical; settings: recombinant intracellular fragment, ATP at Km concentration; read-out: IC50 (μM) Test (a): Inhibition of erbB2 tyrosine kinase protein phosphorylation
T3 construct: Recombinant intracellular fragments of EGFR, erbB2 and erbB4; made in house; host or cells: baculovirus/Sf21 insect cells (cleared lysate used)
T3 sequence (P04626 676-1255 limits assumed): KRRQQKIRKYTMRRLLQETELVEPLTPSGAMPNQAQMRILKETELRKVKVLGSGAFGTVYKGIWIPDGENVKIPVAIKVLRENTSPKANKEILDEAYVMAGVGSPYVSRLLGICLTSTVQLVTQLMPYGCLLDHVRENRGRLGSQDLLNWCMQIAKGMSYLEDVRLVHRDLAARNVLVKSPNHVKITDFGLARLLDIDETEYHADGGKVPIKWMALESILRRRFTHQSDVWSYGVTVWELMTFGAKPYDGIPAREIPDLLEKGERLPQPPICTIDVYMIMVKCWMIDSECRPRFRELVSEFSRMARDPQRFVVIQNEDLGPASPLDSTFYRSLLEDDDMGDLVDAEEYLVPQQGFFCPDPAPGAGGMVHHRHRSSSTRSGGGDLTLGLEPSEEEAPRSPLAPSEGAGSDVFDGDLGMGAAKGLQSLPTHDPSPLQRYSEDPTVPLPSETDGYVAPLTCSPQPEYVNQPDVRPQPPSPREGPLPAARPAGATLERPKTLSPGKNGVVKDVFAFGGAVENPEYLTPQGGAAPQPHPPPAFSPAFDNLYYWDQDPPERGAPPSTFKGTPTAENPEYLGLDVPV
Method: as §1, §2, §3, §4, §5

Row | IC50 (EGFR tyrosine kinase) | IC50 [1] | IC50 (erbB2 tyrosine kinase) | Structure (SMILES)
1 | 1.47 µM | 0.019 µM | 0.002 µM | Cc1ccc(Oc2ccc(Nc3ncnc4cccc(OCC(=O)NCCO)c34)cc2C)cn1 [Example 52, N-(2-Hydroxyethyl)-2-{[4-({3-methyl-4-[(6-methylpyridin-3-yl)oxy]phenyl}amino)quinazolin-5-yl]oxy}acetamide]
2 | 0.135 µM | 0.001 µM | 0.002 µM | C[C@H](Oc1cccc2ncnc(Nc3ccc(OCc4ccccn4)c(Cl)c3)c12)C(=O)N1CCC[C@H]1CO [Example 34, ((2S)-1-{(2S)-2-[(4-{[3-Chloro-4-(pyridin-2-ylmethoxy)phenyl]amino}quinazolin-5-yl)oxy]propanoyl}pyrrolidin-2-yl)methanol]
3 | 0.072 µM | 0.001 µM | 0.002 µM | C[C@@H](Oc1cccc2ncnc(Nc3ccc(OCc4ccccn4)c(Cl)c3)c12)C(=O)N(C)C [Example 21, (2R)-2-[(4-{[3-Chloro-4-(pyridin-2-ylmethoxy)phenyl]amino}quinazolin-5-yl)oxy]-N,N-dimethylpropanamide]
4 | 24.8 µM | 0.002 µM | 0.012 µM | CC(C)(Oc1cccc2ncnc(Nc3ccc(OCc4ccccn4)c(Cl)c3)c12)C(N)=O [Example 42, 2-[(4-{[3-Chloro-4-(pyridin-2-ylmethoxy)phenyl]amino}quinazolin-5-yl)oxy]-2-methylpropanamide]
